In US11529350B2, “Tyrosine kinase non-receptor 1 (TNK1) inhibitors and uses thereof” (Sumitomo Pharma Oncology, Inc., priority 2019, dated 2022):
pIC50: −log10 of the molar value.

How the values were obtained:
[1] = tested on: phospho-STAT5 in L540 cells; assay: In vitro pSTAT5 assay (ELISA) in L540 cells; type: cell-based; conditions: Homo sapiens, L-540, 24 hours, normalized to cell viability, read-out: P-STAT5 Assay IC50
Procedure: The L540 cell line harbors a truncating mutation in the C-terminal regulatory region of the protein. As a consequence, TNK1 in L540 cells is constitutively active in phosphorylating key proteins, including STAT5. In TNK1 wild-type conditions (e.g., K562 CML cells), STAT5 phosphorylation is achieved in a TNK1-independent fashion. As such, reductions in phospho-STAT5 signal specific to the L540 cells are a good readout of TNK1 inhibitor function.
Methods: The in vitro pSTAT5 assay was performed with STAT5 AB (pY964/699) SimpleStep ELISA Kit (Abcam No. ab176656) according to the manufacturer's protocol. Briefly, L540 cells were grown in RPMI1640 media under standard culture conditions (10% FBS with penicillin/streptomycin). To assess test compound effects, cells were plated in 96 well plates (250,000 cells/mL) and allowed to grow overnight. Cells were subsequently treated with varying concentrations of test compound for 24 hours, before being harvested and interrogated with the STAT5 AB (pY964/699) SimpleStep ELISA Kit according to the manufacturer's protocol. Phospho-STAT5 signal was normalized to cell viability, as assessed by the CellTiter-Glo assay (Promega, Cat. No. G7570) on treated cells. TNK1 inhibitor IC50s were determined using Graphpad Prism software on normalized phospho-STAT5 measurements.

TNK1 [2] = target: T1, TNK1 (Homo sapiens, UniProt Q13470); assay: TNK1 NanoBRET target engagement assay (HEK293); type: cell-based; design: host or cells: HEK293; conditions: HEK293 cells, 2 hours; read-out: NanoBRET TE Assay (HEK293) IC50
T1 sequence (Q13470 1-666): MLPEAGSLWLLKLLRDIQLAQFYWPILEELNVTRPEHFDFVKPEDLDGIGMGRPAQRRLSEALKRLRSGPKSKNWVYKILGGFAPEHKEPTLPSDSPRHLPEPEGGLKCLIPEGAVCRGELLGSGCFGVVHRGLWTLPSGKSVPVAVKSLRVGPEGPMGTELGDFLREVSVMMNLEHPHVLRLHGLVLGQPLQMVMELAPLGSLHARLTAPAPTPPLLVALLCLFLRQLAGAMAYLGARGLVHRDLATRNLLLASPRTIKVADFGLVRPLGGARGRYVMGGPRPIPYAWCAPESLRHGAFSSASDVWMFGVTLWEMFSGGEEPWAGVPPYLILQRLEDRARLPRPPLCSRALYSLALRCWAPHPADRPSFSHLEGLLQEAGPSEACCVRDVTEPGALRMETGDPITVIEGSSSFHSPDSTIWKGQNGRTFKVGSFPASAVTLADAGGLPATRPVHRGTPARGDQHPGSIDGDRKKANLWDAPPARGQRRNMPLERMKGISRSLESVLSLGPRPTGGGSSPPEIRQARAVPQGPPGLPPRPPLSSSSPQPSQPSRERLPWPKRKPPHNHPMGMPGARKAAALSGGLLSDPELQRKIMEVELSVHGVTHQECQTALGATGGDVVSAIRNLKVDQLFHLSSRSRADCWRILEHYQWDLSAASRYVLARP
Text: The NanoBRET target engagement (TE) assay (Promega, Madison, Wis.) enables the interrogation of the displacement of a tracer compound in the active site of a recombinant kinase by a test compound in the intracellular setting. The assay enables simultaneous testing of permeability, solubility, and kinase inhibition, and tests the specific interaction of test agents with a kinase of interest, here, TNK1. The assay is based on the principle of bioluminescence resonance energy transfer (BRET). In the assay, a plasmid-encoded, luciferase-tagged form of TNK1 is transfected into cells. A tracer compound is tagged with a fluorophore that fluoresces when bound to the TNK1 protein. Readout is luminescence and fluorescence. Test compounds show activity by displacing the tracer, thus disrupting BRET.
Methods: The TNK1 NanoBRET TE assays were performed according to the manufacturer's protocol. Briefly, Nanoluc-TNK1 Fusion Vector (Promega, Madison, Wis., Cat. No. NV2181) was transfected into HEK293 cells in bulk (8×10^6 cells in a T175 flask). Up to 30 hours post-transfection, cells were harvested by trypsinization, resuspended at a concentration of 2×10^5 cells/mL, and seeded in 96-well plates at 85 μL/well. A test compound and the K5 tracer were added to each well, and the cells were incubated for 2 hours. Luminescence ([…]) and fluorescence ([…]) were measured to determine a BRET ratio. IC50 values were determined from the BRET ratios using the Graphpad Prism software (GraphPad Software, San Diego, Calif.).

TNK1 [3] = target: T1, TNK1; assay: RBC HotSpot Kinase Assay; type: biochemical; design: purchased Reaction Biology Corp., Malvern, Pa; conditions: ATP 10 μM
Procedure: The RBC HotSpot Kinase assay (Reaction Biology Corp., Malvern, Pa.) was used to evaluate the ability of test compounds to modulate (e.g., inhibit) the enzymatic activity of human TNK1 (UniProt Accession No. Q13470) in the following reaction:
Reagent: Base Reaction buffer; 20 mM Hepes (pH 7.5), 10 mM MgCl2, 1 mM EGTA, 0.02% Brij35, 0.02 mg/ml BSA, 0.1 mM Na3VO4, 2 mM DTT, 1% DMSO. Required cofactors were added individually to each kinase reaction.
Compound handling: Test compounds were dissolved in 100% DMSO to specific concentration. The serial dilution was conducted by Integra Viaflo Assist in DMSO.
1. Prepared substrate (peptide substrate, poly[Glu:Tyr] (4:1), 0.2 mg/ml; ATP 10 μM) in freshly prepared Reaction Buffer;
2. Delivered any required cofactors to the substrate solution;
3. Delivered kinase (TNK1) into the substrate solution and gently mixed;
4. Delivered compounds in 100% DMSO into the kinase reaction mixture by Acoustic technology (Echo550; nanoliter range), incubated for 20 minutes at room temperature;
5. Delivered ^33P-ATP (specific activity 10 μCi/μl) into the reaction mixture to initiate the reaction;
6. Incubated for 2 hours at room temperature;
7. Detected radioactivity by filter-binding method;
8. Kinase activity data were expressed as the percent remaining kinase activity in test samples compared to vehicle (dimethyl sulfoxide) reactions. IC50 values and curve fits were obtained using Prism (GraphPad Software).

Structure (SMILES)	pIC50 (TNK1 [2])	pIC50 (TNK1 [3])	pIC50 [1]
COc1cc(N2CCN(C)CC2)c(C)cc1Nc1ncc(Cl)c(Nc2cccnc2N2CCCCC2)n1 [Example No. 14, 5-chloro-N2-(2-methoxy-5-methyl-4-(4-methylpiperazin-1-yl)phenyl)-N4-(2-(piperidin-1-yl)pyridin-3-yl)pyrimidine-2,4-diamine]	< 6.00	7.30 to 7.82	< 7.30
COc1cc(N2CCN(C)CC2)c(C)cc1Nc1ncc(Cl)c(Nc2cccnc2N2CCCCC2=O)n1 [Example No. 15, 1-(3-((5-chloro-2-((2-methoxy-5-methyl-4-(4-methylpiperazin-1-yl)phenyl)amino)pyrimidin-4-yl)amino)pyridin-2-yl)piperidin-2-one]	6.00 to 6.82	7.30 to 7.82	< 7.30
COc1cc(N2CCN(C)CC2)ccc1Nc1ncc(Cl)c(Nc2cccnc2N(C)C)n1 [Example No. 16, 5-chloro-N4-(2-(dimethylamino)pyridin-3-yl)-N2-(2-methoxy-4-(4-methylpiperazin-1-yl)phenyl)pyrimidine-2,4-diamine]	6.00 to 6.82	> 8.30	7.30 to 8.30
COc1cc(N2CCN(C)CC2)c(Cl)cc1Nc1ncc(Br)c(Nc2cccnc2N(C)C)n1 [Example No. 22, 5-bromo-N-(5-chloro-2-methoxy-4-(4-methylpiperazin-1-yl)phenyl)-N-(2-(dimethylamino)pyridin-3-yl)pyrimidine-2,4-diamine]		> 8.30	
COc1cc(N2CCN(C)CC2)c(Cl)cc1Nc1ncc(Br)c(Nc2cccnc2N2CCCC2=O)n1 [Example No. 23, 1-(3-((5-bromo-2-((5-chloro-2-methoxy-4-(4-methylpiperazin-1-yl)phenyl)amino)pyrimidin-4-yl)amino)pyridin-2-yl)pyrrolidin-2-one]		> 8.30	
CN1CCN(c2c(Cl)cc(Nc3ncc(Cl)c(Nc4cccnc4N4CCCC4=O)n3)c3cccnc23)CC1 [Example No. 24, 1-(3-((5-chloro-2-((7-chloro-8-(4-methylpiperazin-1-yl)quinolin-5-yl)amino)pyrimidin-4-yl)amino)pyridin-2-yl)pyrrolidin-2-one]		> 8.30	
COc1cc(N2CCN(C)CC2)c(C)cc1Nc1ncc(Br)c(Nc2ccncc2N(C)C)n1 [Example No. 25, 5-bromo-N-(3-(dimethylamine)pyridin-4-yl)-N-(2-methoxy-5-methyl-4-(4-methylpiperazin-1-yl)phenyl)pyrimidine-2,4-diamine]		> 8.30	
COc1cc(N2CCNCC2)c(Cl)cc1Nc1ncc(Cl)c(Nc2cccnc2N2CCCC2=O)n1 [Example No. 28, 1-(3-((5-chloro-2-((5-chloro-2-methoxy-4-(piperazin-1-yl)phenyl)amino)pyrimidin-4-yl)amino)pyridin-2-yl)pyrrolidin-2-one]		> 8.30	
[2H]C([2H])([2H])N1CCN(c2cc(OC)c(Nc3ncc(Cl)c(Nc4cccnc4N4CCCC4=O)n3)cc2Cl)CC1 [Example No. 29, 1-(3-((5-chloro-2-((5-chloro-2-methoxy-4-(4-(methyl-d3)piperazin-1-yl)phenyl)amino)pyrimidin-4-yl)amino)pyridin-2-yl)pyrrolidin-2-one]		> 8.30	
COc1cc(N2CCN(C)CC2)c(C)cc1Nc1ncc(Cl)c(Nc2cccnc2N(C)C)n1 [compound 6, 5-chloro-N^4-(2-(dimethylamino)pyridin-3-yl)-N^2-(2-methoxy-5-methyl-4-(4-methylpiperazin-1-yl)phenyl)pyrimidine-2,4-diamine]	6.00 to 6.82	> 8.30	7.30 to 8.30
COc1cc(N2CCN(CCO)CC2)c(Cl)cc1Nc1ncc(Cl)c(Nc2cccnc2N2CCCC2=O)n1 [compound 30, 1-(3-((5-chloro-2-((5-chloro-4-(4-(2-hydroxyethyl)piperazin-1-yl)-2-methoxyphenyl)amino)pyrimidin-4-yl)amino)pyridin-2-yl)pyrrolidin-2-one]		> 8.30	

The next lines start with results.

pIC50 (TNK1 [2])	pIC50 (TNK1 [3])	Structure (SMILES)	pIC50 [1]
< 6.00	7.30 to 7.82	COc1cc(N2CCN(C)CC2)c(C)cc1Nc1ncc(C(C)=O)c(Nc2cccnc2N(C)C)n1 [Example No. 12, 1-(4-((2-(dimethylamino)pyridin-3-yl)amino)-2-((2-methoxy-5-methyl-4-(4-methylpiperazin-1-yl)phenyl)amino)pyrimidin-5-yl)ethan-1-one]	< 7.30
< 6.00	7.82 to 8.30	CN1CCN(c2ccc(Nc3ncc(Cl)c(Nc4cccnc4N(C)C)n3)c3ccccc23)CC1 [Example No. 17, 5-chloro-N4-(2-(dimethylamino)pyridin-3-yl)-N2-(4-(4-methylpiperazin-1-yl)naphthalen-1-yl)pyrimidine-2,4-diamine]	< 7.30
6.00 to 6.82	7.82 to 8.30	COc1cc(N2CCN(C)CC2)c(Cl)cc1Nc1ncc(Cl)c(Nc2cccnc2N2CCCCC2=O)n1 [Example No. 19, 1-(3-((5-chloro-2-((5-chloro-2-methoxy-4-(4-methylpiperazin-1-yl)phenyl)amino)pyrimidin-4-yl)amino)pyridin-2-yl)piperidin-2-one]	7.30 to 8.30
6.00 to 6.82	7.82 to 8.30	COc1cc(N2CCN(C)CC2)c(C)cc1Nc1ncc(C#N)c(Nc2cccnc2N(C)C)n1 [Example No. 20]	
	> 8.30	CN1CCN(c2c(Cl)cc(Nc3ncc(Cl)c(Nc4cccnc4N4CCCC4=O)n3)c3c2CCCO3)CC1 [Example No. 26, 1-(3-((5-chloro-2-((6-chloro-5-(4-methylpiperazin-1-yl)chroman-8-yl)amino)pyrimidin-4-yl)amino)pyridin-2-yl)pyrrolidin-2-one]	
	> 8.30	[2H]C([2H])([2H])N(c1ncccc1Nc1nc(Nc2cc(C)c(N3CCN(C)CC3)cc2OC)ncc1Br)C([2H])([2H])[2H] [Example No. 27, N^4-(2-(bis(methyl-d3)amino)pyridin-3-yl)-5-bromo-N-(2-methoxy-5-methyl-4-(4-methylpiperazin-1-yl)phenyl)pyrimidine-2,4-diamine]	
